Measurements taken from article PMC9099121, “Population pharmacokinetic and exposure‐response analyses from ALTA‐1L: Model‐based analyses supporting the brigatinib dose in ALK‐positive NSCLC” (Clinical and Translational Science, 2022).

Tests used:
ALK+ NSCLC = experiment: Exposure-ORR/iORR logistic regression, ALTA-1L; type: in vivo, human
Excerpt: The exposure‐efficacy analyses related reported efficacy outcomes (blinded IRC [BIRC]‐assessed PFS, ORR, and iORR) to individual brigatinib exposures predicted using individual estimated PK parameters from the population PK model. Model‐based estimates of CL/F and actual dosing history were used to derive exposure metrics of interest. Several exposure metrics were considered, including both static and dynamic area under the concentration‐time curve (AUC) estimates (Methods S1).
For ORR and iORR, each patient was classified as a responder (i.e., achieving confirmed complete or partial systemic ORR or iORR response) or a nonresponder. Relationships between ORR and iORR and brigatinib exposure were analyzed using two static exposure metrics: time‐averaged AUC between the last two disease assessment scans preceding best confirmed response and time‐averaged AUC until best confirmed response (ORR or iORR). Exposure–clinical response relationships were characterized by logistic regression models. Predicted logistic regression curve and observed response rate in each brigatinib exposure quartile or tertile (along with associated 95% CIs) were plotted.
Time averaged AUC until best confirmed response (ORR or iORR)= Cumulative dose to best confirmed systemic ORR or intracranial iORR responseOral brigatinib clearance/ (days to best confirmed systemic or intracranial response)
Static metrics of time-averaged exposure between the last two disease assessment scans preceding PFS, ORR, or iORR, or censoring (refer to 2)

[1] = parameters: method as in earlier work; conditions: after administration of 180 mg q.d.; cited from earlier work

## COc1cc(N2CCC(N3CCN(C)CC3)CC2)ccc1Nc1ncc(Cl)c(Nc2ccccc2P(C)(C)=O)n1 [brigatinib]
ALK+ NSCLC; 5th exposure percentile following 180 mg dosing
  Estimated probability of iORR: 0.58
ALK+ NSCLC; 50th (median) exposure percentile following 180 mg dosing
  Estimated probability of iORR: 0.83
ALK+ NSCLC; 50th (median) exposure percentile following 180 mg dosing, listed as Brigatinib
  Estimated probability of iORR: 0.83 (0.58–0.99)
ALK+ NSCLC; 95th exposure percentile following 180 mg dosing
  Estimated probability of iORR: 0.99
ALK+ NSCLC; time-averaged AUC between the last two disease assessments preceding best confirmed intracranial response, 95% CI: 1.01–1.28, p = 0.049, n = 42
  Odds ratio for probability of achieving iORR versus exposure: 1.13
ALK+ NSCLC; time-averaged AUC between the last two disease assessments preceding best confirmed objective response, 95% CI: 0.93–1.01, p = 0.108
  Odds ratio for probability of achieving ORR versus exposure: 0.97
ALK+ NSCLC; time-averaged AUC until the first best confirmed response, p = 0.13
  Odds ratio for probability of achieving ORR versus exposure: 0.97 [0.94–1.01]
ALK+ NSCLC; time-averaged AUC until the first best confirmed response, p = 0.15
  Odds ratio for probability of iORR versus exposure: 1.09 [0.98–1.23]
[1]
  Mean plasma elimination half-life: 25 h
